Data published in paper PMC12670405, “Second-Generation AURKA-Targeting PROTACs: Structural Optimization toward in Vivo Degradation in Neuroblastoma” (Journal of Medicinal Chemistry, 2025).

How the values were obtained:
Experiment in all cases: KINOMEscan scanMAX
Assay type in all cases: binding
[1] = target: T1, PIK3C2B (Homo sapiens, UniProt O00750); settings: read-out: Percent Control
T1 construct: purchased Eurofins Discovery (DiscoverX KINOMEscan scanMAX)
Procedure: (§1) The kinome-wide binding assay was performed by Eurofins Discovery using the scanMAX screening platform. More information can be found on the Eurofins Discovery Web site.

[2] = target: T2, HASPIN (Homo sapiens, UniProt Q8TF76); settings: read-out: Percent Control
T2 construct: purchased Eurofins Discovery (DiscoverX KINOMEscan scanMAX)
Procedure: as §1

[3] = target: T3, PIK3CA(I800L) (Homo sapiens, UniProt P42336, I800L); settings: read-out: Percent Control
T3 construct: purchased Eurofins Discovery (DiscoverX KINOMEscan scanMAX)
T3 sequence (P42336 whole entry I800L): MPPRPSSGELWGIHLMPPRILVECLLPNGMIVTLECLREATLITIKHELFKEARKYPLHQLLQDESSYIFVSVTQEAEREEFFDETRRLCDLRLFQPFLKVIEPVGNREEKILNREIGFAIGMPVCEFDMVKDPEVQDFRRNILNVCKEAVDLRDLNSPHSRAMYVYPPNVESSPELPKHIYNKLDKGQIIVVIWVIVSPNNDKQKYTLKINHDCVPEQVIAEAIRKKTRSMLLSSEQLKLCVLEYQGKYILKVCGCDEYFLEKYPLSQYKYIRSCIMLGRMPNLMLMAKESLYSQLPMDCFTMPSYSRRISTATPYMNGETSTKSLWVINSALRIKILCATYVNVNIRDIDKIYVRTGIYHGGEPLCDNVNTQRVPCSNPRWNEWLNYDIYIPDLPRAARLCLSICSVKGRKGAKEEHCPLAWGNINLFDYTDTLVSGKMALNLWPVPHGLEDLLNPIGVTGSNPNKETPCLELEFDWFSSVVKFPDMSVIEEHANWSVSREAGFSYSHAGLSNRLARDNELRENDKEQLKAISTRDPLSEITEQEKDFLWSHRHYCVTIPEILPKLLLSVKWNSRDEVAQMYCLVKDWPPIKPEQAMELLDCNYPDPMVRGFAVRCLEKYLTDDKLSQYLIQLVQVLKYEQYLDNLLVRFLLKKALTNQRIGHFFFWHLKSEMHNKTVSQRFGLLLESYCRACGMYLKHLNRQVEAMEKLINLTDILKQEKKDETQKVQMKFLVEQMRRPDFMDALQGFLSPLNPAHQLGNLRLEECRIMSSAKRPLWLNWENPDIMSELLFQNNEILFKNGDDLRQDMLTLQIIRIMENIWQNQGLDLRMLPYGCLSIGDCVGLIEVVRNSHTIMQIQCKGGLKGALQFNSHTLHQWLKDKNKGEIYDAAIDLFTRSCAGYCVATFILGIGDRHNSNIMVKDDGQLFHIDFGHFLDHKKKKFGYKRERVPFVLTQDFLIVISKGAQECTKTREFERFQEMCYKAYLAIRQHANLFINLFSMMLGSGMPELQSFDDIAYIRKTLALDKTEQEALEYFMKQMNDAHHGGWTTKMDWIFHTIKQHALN
Procedure: as §1

[4] = target: T4, DDR2 (Homo sapiens, UniProt Q16832); settings: read-out: Percent Control
T4 construct: purchased Eurofins Discovery (DiscoverX KINOMEscan scanMAX)
Procedure: as §1

[5] = target: T5, PKAC-alpha (Homo sapiens, UniProt P17612); settings: read-out: Percent Control
T5 construct: purchased Eurofins Discovery (DiscoverX KINOMEscan scanMAX)
Procedure: as §1

[6] = target: T6, TXK (Homo sapiens, UniProt P42681); settings: read-out: Percent Control
T6 construct: purchased Eurofins Discovery (DiscoverX KINOMEscan scanMAX)
Procedure: as §1

[7] = target: T7, PCTK1 (Homo sapiens, UniProt Q00536); settings: read-out: Percent Control
T7 construct: purchased Eurofins Discovery (DiscoverX KINOMEscan scanMAX)
Procedure: as §1

[8] = target: T8, PIK3CA(E542K) (Homo sapiens, UniProt P42336, E542K); settings: read-out: Percent Control
T8 construct: purchased Eurofins Discovery (DiscoverX KINOMEscan scanMAX)
T8 sequence (P42336 whole entry E542K): as the sequence (P42336 whole entry I800L) above, with E542K, L800I counted along it
Procedure: as §1

[9] = target: T9, PIK4CB (Homo sapiens, UniProt Q9UBF8); settings: read-out: Percent Control
T9 construct: purchased Eurofins Discovery (DiscoverX KINOMEscan scanMAX)
Procedure: as §1

[10] = target: T10, MYO3A (Homo sapiens, UniProt Q8NEV4); settings: read-out: Percent Control
T10 construct: purchased Eurofins Discovery (DiscoverX KINOMEscan scanMAX)
Procedure: as §1

[11] = target: T11, CAMK1D (Homo sapiens, UniProt Q8IU85); settings: read-out: Percent Control
T11 construct: purchased Eurofins Discovery (DiscoverX KINOMEscan scanMAX)
Procedure: as §1

[12] = target: T12, NLK (Homo sapiens, UniProt Q9UBE8); settings: read-out: Percent Control
T12 construct: purchased Eurofins Discovery (DiscoverX KINOMEscan scanMAX)
T12 sequence (Q9UBE8 whole entry): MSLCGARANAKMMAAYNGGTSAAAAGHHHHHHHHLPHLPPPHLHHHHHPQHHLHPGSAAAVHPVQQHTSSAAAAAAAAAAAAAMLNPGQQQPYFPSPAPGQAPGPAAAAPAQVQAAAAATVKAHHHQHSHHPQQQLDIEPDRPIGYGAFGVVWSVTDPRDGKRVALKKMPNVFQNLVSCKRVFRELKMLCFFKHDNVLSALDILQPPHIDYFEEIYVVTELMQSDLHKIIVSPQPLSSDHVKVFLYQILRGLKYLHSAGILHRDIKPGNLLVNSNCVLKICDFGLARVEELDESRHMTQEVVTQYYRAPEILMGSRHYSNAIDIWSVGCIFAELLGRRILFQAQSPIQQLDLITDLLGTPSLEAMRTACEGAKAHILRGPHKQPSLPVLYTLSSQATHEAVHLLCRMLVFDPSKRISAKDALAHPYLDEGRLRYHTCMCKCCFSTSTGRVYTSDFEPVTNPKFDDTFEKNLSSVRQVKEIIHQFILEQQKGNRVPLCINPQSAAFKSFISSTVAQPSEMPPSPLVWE
Procedure: as §1

[13] = target: T13, PRKCD (Homo sapiens, UniProt Q05655); settings: read-out: Percent Control
T13 construct: purchased Eurofins Discovery (DiscoverX KINOMEscan scanMAX)
Procedure: as §1

[14] = target: T14, JNK2 (Homo sapiens, UniProt P45984); settings: read-out: Percent Control
T14 construct: purchased Eurofins Discovery (DiscoverX KINOMEscan scanMAX)
T14 sequence (P45984 whole entry): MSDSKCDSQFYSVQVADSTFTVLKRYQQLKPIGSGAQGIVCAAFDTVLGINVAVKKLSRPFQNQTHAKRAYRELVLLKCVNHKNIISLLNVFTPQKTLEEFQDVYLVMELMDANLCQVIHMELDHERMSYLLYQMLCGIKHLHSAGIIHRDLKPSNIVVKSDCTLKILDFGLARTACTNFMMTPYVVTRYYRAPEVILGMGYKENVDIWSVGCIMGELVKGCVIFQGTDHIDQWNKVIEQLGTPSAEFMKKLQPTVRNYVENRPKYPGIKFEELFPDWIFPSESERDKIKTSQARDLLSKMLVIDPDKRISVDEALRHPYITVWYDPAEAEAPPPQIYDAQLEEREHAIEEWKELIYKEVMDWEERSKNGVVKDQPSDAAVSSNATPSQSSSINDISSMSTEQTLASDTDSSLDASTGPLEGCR
Procedure: as §1

[15] = target: T15, MLK2 (Homo sapiens, UniProt Q02779); settings: read-out: Percent Control
T15 construct: purchased Eurofins Discovery (DiscoverX KINOMEscan scanMAX)
T15 sequence (Q02779 whole entry): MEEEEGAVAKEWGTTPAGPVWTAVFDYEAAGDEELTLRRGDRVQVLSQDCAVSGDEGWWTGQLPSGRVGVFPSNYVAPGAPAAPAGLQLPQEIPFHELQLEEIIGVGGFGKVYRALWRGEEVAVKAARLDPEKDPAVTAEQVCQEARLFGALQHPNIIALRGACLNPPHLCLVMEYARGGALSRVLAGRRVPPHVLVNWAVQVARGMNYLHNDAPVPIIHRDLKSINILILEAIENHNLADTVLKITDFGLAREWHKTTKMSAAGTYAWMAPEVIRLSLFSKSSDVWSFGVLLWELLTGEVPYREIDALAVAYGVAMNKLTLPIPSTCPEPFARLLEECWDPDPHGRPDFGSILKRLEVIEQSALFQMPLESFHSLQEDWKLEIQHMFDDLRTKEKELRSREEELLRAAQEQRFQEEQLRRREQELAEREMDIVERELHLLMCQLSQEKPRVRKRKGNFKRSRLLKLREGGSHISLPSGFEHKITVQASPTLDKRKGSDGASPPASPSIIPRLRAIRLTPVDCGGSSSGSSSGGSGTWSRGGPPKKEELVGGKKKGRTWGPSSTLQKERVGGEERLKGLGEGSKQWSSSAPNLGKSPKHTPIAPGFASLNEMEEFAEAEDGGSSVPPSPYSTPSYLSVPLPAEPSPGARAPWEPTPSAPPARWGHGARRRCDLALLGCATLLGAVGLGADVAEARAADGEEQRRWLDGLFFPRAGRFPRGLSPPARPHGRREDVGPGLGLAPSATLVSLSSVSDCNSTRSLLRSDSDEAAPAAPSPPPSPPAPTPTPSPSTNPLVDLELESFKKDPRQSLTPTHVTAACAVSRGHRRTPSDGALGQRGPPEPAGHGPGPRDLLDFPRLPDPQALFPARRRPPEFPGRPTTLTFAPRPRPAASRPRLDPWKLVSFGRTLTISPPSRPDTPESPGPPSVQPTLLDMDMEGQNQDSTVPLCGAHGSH
Procedure: as §1

[16] = target: T16, ABL1(F317L)-phosphorylated (Homo sapiens, UniProt P00519, F317L); settings: read-out: Percent Control
T16 construct: purchased Eurofins Discovery (DiscoverX KINOMEscan scanMAX)
Procedure: as §1

[17] = target: T17, SRPK3 (Homo sapiens, UniProt Q9UPE1); settings: read-out: Percent Control
T17 construct: purchased Eurofins Discovery (DiscoverX KINOMEscan scanMAX)
Procedure: as §1

[18] = target: T18, DYRK1A (Homo sapiens, UniProt Q13627); settings: read-out: Percent Control
T18 construct: purchased Eurofins Discovery (DiscoverX KINOMEscan scanMAX)
Procedure: as §1

[19] = target: T19, S6K1 (Homo sapiens, UniProt P23443); settings: read-out: Percent Control
T19 construct: purchased Eurofins Discovery (DiscoverX KINOMEscan scanMAX)
Procedure: as §1

[20] = target: T20, TIE2 (Homo sapiens, UniProt Q02763); settings: read-out: Percent Control
T20 construct: purchased Eurofins Discovery (DiscoverX KINOMEscan scanMAX)
Procedure: as §1

[21] = target: T21, PRKCQ (Homo sapiens, UniProt Q04759); settings: read-out: Percent Control
T21 construct: purchased Eurofins Discovery (DiscoverX KINOMEscan scanMAX)
T21 sequence (Q04759 whole entry): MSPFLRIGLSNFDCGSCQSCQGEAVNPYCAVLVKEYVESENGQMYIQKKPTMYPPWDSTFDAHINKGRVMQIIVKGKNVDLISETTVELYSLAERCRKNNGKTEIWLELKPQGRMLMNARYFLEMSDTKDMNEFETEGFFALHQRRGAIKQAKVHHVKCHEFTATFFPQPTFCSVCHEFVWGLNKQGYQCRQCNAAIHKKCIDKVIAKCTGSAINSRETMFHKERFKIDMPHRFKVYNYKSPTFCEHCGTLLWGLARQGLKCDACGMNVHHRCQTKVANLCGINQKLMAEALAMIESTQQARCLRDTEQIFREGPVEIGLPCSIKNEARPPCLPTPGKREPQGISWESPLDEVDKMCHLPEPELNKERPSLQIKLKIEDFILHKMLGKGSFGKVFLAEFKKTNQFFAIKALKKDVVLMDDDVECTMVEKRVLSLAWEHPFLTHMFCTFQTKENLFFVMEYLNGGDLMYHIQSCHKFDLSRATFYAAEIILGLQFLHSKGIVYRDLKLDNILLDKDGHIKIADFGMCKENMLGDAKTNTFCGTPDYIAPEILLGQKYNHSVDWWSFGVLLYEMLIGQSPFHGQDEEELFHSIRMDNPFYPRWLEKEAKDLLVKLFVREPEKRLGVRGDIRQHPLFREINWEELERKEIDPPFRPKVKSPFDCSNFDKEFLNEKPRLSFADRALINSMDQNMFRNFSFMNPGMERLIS
Procedure: as §1

[22] = target: T22, EPHA3 (Homo sapiens, UniProt P29320); settings: read-out: Percent Control
T22 construct: purchased Eurofins Discovery (DiscoverX KINOMEscan scanMAX)
T22 sequence (P29320 21-983): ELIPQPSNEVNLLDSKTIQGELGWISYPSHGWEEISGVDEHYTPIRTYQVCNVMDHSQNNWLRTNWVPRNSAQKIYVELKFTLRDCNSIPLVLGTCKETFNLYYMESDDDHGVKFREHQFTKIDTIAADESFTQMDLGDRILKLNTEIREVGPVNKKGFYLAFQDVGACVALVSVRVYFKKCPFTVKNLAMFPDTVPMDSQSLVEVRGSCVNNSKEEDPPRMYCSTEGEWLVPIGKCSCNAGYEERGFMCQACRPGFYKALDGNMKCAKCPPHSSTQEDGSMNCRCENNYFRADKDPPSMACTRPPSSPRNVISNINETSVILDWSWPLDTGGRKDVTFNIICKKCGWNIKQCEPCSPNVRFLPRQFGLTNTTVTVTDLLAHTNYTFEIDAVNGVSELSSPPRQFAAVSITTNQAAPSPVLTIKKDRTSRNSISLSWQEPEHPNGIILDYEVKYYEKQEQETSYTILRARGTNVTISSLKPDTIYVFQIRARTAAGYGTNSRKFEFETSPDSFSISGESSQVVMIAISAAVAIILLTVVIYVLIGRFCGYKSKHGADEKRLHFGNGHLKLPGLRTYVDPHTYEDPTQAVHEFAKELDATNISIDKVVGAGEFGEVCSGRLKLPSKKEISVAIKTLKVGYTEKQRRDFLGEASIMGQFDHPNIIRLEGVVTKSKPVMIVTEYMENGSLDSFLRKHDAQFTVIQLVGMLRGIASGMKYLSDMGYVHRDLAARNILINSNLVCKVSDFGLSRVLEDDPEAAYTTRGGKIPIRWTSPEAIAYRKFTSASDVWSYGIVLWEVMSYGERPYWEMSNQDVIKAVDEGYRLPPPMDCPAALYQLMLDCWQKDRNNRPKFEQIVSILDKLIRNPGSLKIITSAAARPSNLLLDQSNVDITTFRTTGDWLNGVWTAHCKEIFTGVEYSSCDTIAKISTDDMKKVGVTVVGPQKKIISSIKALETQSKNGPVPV
Procedure: as §1

[23] = tested on: FLT3(ITD)
Procedure: as §1

[24] = target: T23, TNK1 (Homo sapiens, UniProt Q13470); settings: read-out: Percent Control
T23 construct: purchased Eurofins Discovery (DiscoverX KINOMEscan scanMAX)
Procedure: as §1

[25] = target: T24, KIT(V559D,T670I) (Homo sapiens, UniProt P10721, T670I/V559D); settings: read-out: Percent Control
T24 construct: purchased Eurofins Discovery (DiscoverX KINOMEscan scanMAX)
Procedure: as §1

[26] = target: T25, STK16 (Homo sapiens, UniProt O75716); settings: read-out: Percent Control
T25 construct: purchased Eurofins Discovery (DiscoverX KINOMEscan scanMAX)
T25 sequence (O75716 whole entry): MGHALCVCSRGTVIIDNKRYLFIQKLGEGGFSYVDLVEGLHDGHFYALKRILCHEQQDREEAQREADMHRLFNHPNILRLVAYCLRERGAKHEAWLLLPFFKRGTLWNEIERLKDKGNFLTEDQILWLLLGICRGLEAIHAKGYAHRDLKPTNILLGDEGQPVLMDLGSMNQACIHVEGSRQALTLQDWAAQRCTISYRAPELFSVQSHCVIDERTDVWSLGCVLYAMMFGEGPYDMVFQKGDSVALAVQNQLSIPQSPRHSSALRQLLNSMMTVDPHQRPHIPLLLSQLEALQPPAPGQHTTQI
Procedure: as §1

[27] = target: T26, PCTK3 (Homo sapiens, UniProt Q07002); settings: read-out: Percent Control
T26 construct: purchased Eurofins Discovery (DiscoverX KINOMEscan scanMAX)
Procedure: as §1

[28] = target: T27, PAK2 (Homo sapiens, UniProt Q13177); settings: read-out: Percent Control
T27 construct: purchased Eurofins Discovery (DiscoverX KINOMEscan scanMAX)
Procedure: as §1

[29] = target: T28, NEK2 (Homo sapiens, UniProt P51955); settings: read-out: Percent Control
T28 construct: purchased Eurofins Discovery (DiscoverX KINOMEscan scanMAX)
Procedure: as §1

[30] = target: T29, MAP3K2 (Homo sapiens, UniProt Q9Y2U5); settings: read-out: Percent Control
T29 construct: purchased Eurofins Discovery (DiscoverX KINOMEscan scanMAX)
Procedure: as §1

[31] = target: T30, MAP4K5 (Homo sapiens, UniProt Q9Y4K4); settings: read-out: Percent Control
T30 construct: purchased Eurofins Discovery (DiscoverX KINOMEscan scanMAX)
Procedure: as §1

[32] = target: T31, MET(Y1235D) (Homo sapiens, UniProt P08581, Y1235D); settings: read-out: Percent Control
T31 construct: purchased Eurofins Discovery (DiscoverX KINOMEscan scanMAX)
Procedure: as §1

[33] = target: T32, TYRO3 (Homo sapiens, UniProt Q06418); settings: read-out: Percent Control
T32 construct: purchased Eurofins Discovery (DiscoverX KINOMEscan scanMAX)
Procedure: as §1

[34] = target: T33, MKNK2 (Homo sapiens, UniProt Q9HBH9); settings: read-out: Percent Control
T33 construct: purchased Eurofins Discovery (DiscoverX KINOMEscan scanMAX)
Procedure: as §1

`Cc1cc(Nc2ccc(F)c(CC3(C(=O)N4CCC(F)(CN5CCN(c6ccc(N7CCC(=O)NC7=O)cn6)CC5)CC4)CCN(Cc4cccc(Cl)c4F)CC3)n2)n[nH]1` [SK5527] was tested, and the remaining binding at 0.1 µM ([1]; 100 nM) was 99%, the remaining binding at 1 µM ([1]; 1000 nM) was 91% and the remaining binding at 0.1 µM ([2]; 100 nM) was 79%. For the same molecule, the remaining binding at 1 µM ([2]; 1000 nM) was 70%, the remaining binding at 0.1 µM ([3]; 100 nM) was 85% and the remaining binding at 1 µM ([3]; 1000 nM) was 74%. For the same molecule, the remaining binding at 0.1 µM ([4]; 100 nM) was 98%, the remaining binding at 1 µM ([4]; 1000 nM) was 100% and the remaining binding at 0.1 µM ([5]; 100 nM) was 83%. The remaining binding at 1 µM ([5]; 1000 nM) was 86%, the remaining binding at 0.1 µM ([6]; 100 nM) was 75% and the remaining binding at 1 µM ([6]; 1000 nM) was 78%. For the same molecule, the remaining binding at 0.1 µM ([7]; 100 nM) was 89%, the remaining binding at 1 µM ([7]; 1000 nM) was 88% and the remaining binding at 0.1 µM ([8]; 100 nM) was 81%. For the same molecule, the remaining binding at 1 µM ([8]; 1000 nM) was 68%, the remaining binding at 0.1 µM ([9]; 100 nM) was 73% and the remaining binding at 1 µM ([9]; 1000 nM) was 65%. The remaining binding at 0.1 µM ([10]; 100 nM) was 100%, the remaining binding at 1 µM ([10]; 1000 nM) was 100% and the remaining binding at 0.1 µM ([11]; 100 nM) was 100%. The remaining binding at 1 µM ([11]; 1000 nM) was 100%, the remaining binding at 0.1 µM ([12]; 100 nM) was 94% and the remaining binding at 1 µM ([12]; 1000 nM) was 82%. The remaining binding at 0.1 µM ([13]; 100 nM) was 100%, the remaining binding at 1 µM ([13]; 1000 nM) was 100% and the remaining binding at 0.1 µM ([14]; 100 nM) was 67%. It also gave a remaining binding at 1 µM ([14]; 1000 nM) of 74%, a remaining binding at 0.1 µM ([15]; 100 nM) of 100% and a remaining binding at 1 µM ([15]; 1000 nM) of 100%. The remaining binding at 0.1 µM ([16]; 100 nM) was 92%, the remaining binding at 1 µM ([16]; 1000 nM) was 68% and the remaining binding at 0.1 µM ([17]; 100 nM) was 100%. For the same molecule, the remaining binding at 1 µM ([17]; 1000 nM) was 97%, the remaining binding at 0.1 µM ([18]; 100 nM) was 79% and the remaining binding at 1 µM ([18]; 1000 nM) was 80%. For the same molecule, the remaining binding at 0.1 µM ([19]; 100 nM) was 100%, the remaining binding at 1 µM ([19]; 1000 nM) was 100% and the remaining binding at 0.1 µM ([20]; 100 nM) was 100%. The remaining binding at 1 µM ([20]; 1000 nM) was 100%, the remaining binding at 0.1 µM ([21]; 100 nM) was 100% and the remaining binding at 1 µM ([21]; 1000 nM) was 94%. For the same molecule, the remaining binding at 0.1 µM ([22]; 100 nM) was 99%, the remaining binding at 1 µM ([22]; 1000 nM) was 71% and the “Percent Control” value ([23]; 100 nM) was 89%. For the same molecule, the “Percent Control” value ([23]; 1000 nM) was 94%, the remaining binding at 0.1 µM ([24]; 100 nM) was 66% and the remaining binding at 1 µM ([24]; 1000 nM) was 44%. The remaining binding at 0.1 µM ([25]; 100 nM) was 100%, the remaining binding at 1 µM ([25]; 1000 nM) was 89% and the remaining binding at 0.1 µM ([26]; 100 nM) was 100%. It also gave a remaining binding at 1 µM ([26]; 1000 nM) of 69%, a remaining binding at 0.1 µM ([27]; 100 nM) of 91% and a remaining binding at 1 µM ([27]; 1000 nM) of 84%. It also gave a remaining binding at 0.1 µM ([28]; 100 nM) of 100%, a remaining binding at 1 µM ([28]; 1000 nM) of 79% and a remaining binding at 0.1 µM ([29]; 100 nM) of 90%. The remaining binding at 1 µM ([29]; 1000 nM) was 91%, the remaining binding at 0.1 µM ([30]; 100 nM) was 92% and the remaining binding at 1 µM ([30]; 1000 nM) was 73%. The remaining binding at 0.1 µM ([31]; 100 nM) was 100%, the remaining binding at 1 µM ([31]; 1000 nM) was 100% and the remaining binding at 0.1 µM ([32]; 100 nM) was 86%. For the same molecule, the remaining binding at 1 µM ([32]; 1000 nM) was 100%, the remaining binding at 0.1 µM ([33]; 100 nM) was 80% and the remaining binding at 1 µM ([33]; 1000 nM) was 89%. It also gave a remaining binding at 0.1 µM ([34]; 100 nM) of 59% and a remaining binding at 1 µM ([34]; 1000 nM) of 68%.
